Measurements published in patent publication US11390609B2, “Rho-associated protein kinase inhibitor, pharmaceutical composition comprising same, and preparation method and use thereof” (BEIJING TIDE PHARMACEUTICAL CO., LTD., priority 2017, dated 2022).
pIC50: −log10 of the molar value.

Tests used:
[1] = target: ROCK2 (Homo sapiens, UniProt O75116); assay: ROCK2 kinase IC50 assay (CISBIO HTRF KinEASE-STK S2 kit); assay type: biochemical; conditions: incubated at room temperature for 2 hours
Summary of the method: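 HTRF KinEASE-STK S2 format with recombinant ROCK2 (1.4 ng per well), STK-S2 substrate and ATP from 5× working solutions of 1.5 μM each, run 2 h at room temperature. Nine-point dilutions from 10000 nM top concentration; 665/615 nm emission ratio normalised to no-compound and no-kinase controls, curve-fitted for IC50.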

[2] = target: ROCK1 (Homo sapiens (Human), UniProt Q13464); assay: ROCK1 kinase IC50 assay (biological test method similar to the ROCK2 assay); assay type: biochemical
Summary of the method: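 HTRF KinEASE-STK S2 assay with the STK-S2 biotinylated substrate and ATP, at 5× working solutions of 1.5 µM each. Kinase reaction with 9-point compound dilutions ran 2 h at room temperature, followed by 1 h streptavidin-XL665/Cryptate detection. The 665/615 nm ratio was normalised to no-compound and no-kinase wells, and IC50 was obtained by curve fitting.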

Chain of ROCK1 (Q13464 whole entry, species assumed): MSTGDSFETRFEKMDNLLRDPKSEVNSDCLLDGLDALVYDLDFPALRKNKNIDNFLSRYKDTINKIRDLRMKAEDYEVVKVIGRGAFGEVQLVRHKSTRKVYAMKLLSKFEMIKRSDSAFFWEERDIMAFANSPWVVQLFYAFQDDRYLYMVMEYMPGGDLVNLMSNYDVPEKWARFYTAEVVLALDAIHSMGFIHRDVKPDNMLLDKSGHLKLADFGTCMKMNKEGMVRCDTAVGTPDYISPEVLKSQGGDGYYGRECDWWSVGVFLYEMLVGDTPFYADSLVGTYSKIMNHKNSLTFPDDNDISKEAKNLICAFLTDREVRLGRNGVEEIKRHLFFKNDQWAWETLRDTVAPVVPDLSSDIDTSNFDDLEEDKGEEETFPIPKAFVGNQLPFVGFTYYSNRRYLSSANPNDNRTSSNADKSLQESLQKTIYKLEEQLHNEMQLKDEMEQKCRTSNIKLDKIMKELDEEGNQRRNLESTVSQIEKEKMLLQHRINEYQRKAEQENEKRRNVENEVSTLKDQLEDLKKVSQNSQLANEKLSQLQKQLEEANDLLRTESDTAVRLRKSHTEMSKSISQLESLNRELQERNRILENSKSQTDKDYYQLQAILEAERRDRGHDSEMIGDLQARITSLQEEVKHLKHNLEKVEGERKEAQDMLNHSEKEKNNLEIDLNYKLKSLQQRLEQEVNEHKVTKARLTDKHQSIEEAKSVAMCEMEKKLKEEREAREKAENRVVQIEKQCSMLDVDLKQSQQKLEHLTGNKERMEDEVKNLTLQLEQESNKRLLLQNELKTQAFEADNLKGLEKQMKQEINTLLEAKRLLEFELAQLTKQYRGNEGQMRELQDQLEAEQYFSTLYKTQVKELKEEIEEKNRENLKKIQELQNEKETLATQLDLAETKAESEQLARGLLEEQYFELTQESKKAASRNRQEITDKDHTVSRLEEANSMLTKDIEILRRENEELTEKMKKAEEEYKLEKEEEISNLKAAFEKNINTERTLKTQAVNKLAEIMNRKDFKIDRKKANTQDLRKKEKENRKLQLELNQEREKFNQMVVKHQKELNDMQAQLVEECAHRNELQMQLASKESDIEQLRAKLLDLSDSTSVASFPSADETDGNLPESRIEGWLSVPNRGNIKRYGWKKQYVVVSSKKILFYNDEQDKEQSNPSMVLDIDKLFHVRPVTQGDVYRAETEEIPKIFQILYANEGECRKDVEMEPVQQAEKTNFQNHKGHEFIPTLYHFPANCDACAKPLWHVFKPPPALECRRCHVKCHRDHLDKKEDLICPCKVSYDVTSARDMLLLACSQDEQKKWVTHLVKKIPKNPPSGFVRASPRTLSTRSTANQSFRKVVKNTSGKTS

SMILES | pIC50 [1] | pIC50 [2]
O=C(C1CC(F)(F)C1)N1Cc2ccc(-c3ncc(F)c(Nc4ccc(-c5cn[nH]c5)cc4F)n3)cc2C1 [TDI01598, (3,3-difluorocyclobutyl)(5-(5-fluoro-4-((2-fluoro-4-(1H-pyrazol-4-yl)phenyl)amino)pyrimidin-2-yl)isoindolin-2-yl)methanone] | 6.67 | < 5.00
O=C(C1CC(F)(F)C1)N1CCc2cc(-c3ncc(F)c(Nc4ccc(-c5cn[nH]c5)cc4)n3)ccc21 [TDI01618A, (5-(4-((4-(1H-pyrazol-4-yl)phenyl)amino)-5-fluoropyrimidin-2-yl)indolin-1-yl)(3,3-difluorocyclobutyl) methanone] | 6.89 | < 5.00
O=C(OC1CC(F)(F)C1)N1CCc2cc(-c3nccc(Nc4ccc(-c5cn[nH]c5)cc4)n3)ccc2C1 [TDI01621, 3,3-difluorocyclobutyl 6-(4-((4-(1H-pyrazol-4-yl)phenyl)amino)pyrimidin-2-yl)-3,4-dihydroisoquinoline-2(1H)-carboxylate] | 6.66 | < 5.00
O=C(OC1CCC(F)(F)CC1)N1CCc2cc(-c3nccc(Nc4ccc(-c5cn[nH]c5)cc4)n3)ccc2C1 [TDI01656, 4,4-difluorocyclohexyl 6-(4-((4-(1H-pyrazol-4-yl)phenyl)amino)pyrimidin-2-yl)-3,4-dihydroisoquinoline-2(1H)-carboxylate] | 6.35 | < 5.00
CC1(C(=O)N2CCc3ccc(-c4nccc(Nc5ccc(-c6cn[nH]c6)cc5)n4)cc3C2)CC(F)(F)C1 [TDI01676, (7-(4-((4-(1H-pyrazol-4-yl)phenyl)amino)pyrimidin-2-yl)-3,4-dihydroisoquinolin-2(1H)-yl)(3,3-difluoro-1-methylcyclobutyl) methanone] | 6.62 | < 5.00
Cn1c(C(=O)N2CC(F)(F)C2)cc2ccc(-c3ncc(C(F)(F)F)c(Nc4ccc(-c5cn[nH]c5)cc4)n3)cc21 [TDI01681, (6-(4-((4-(1H-pyrazol-4-yl)phenyl)amino)-5-(trifluoromethyl)pyrimidin-2-yl)-1-methyl-1H-indol-2-yl)(3,3-difluoroazetidin-1-yl)methanone] | 6.62 | < 5.00
O=C(C1CC(F)(F)C1)N1CCc2cc(-c3nccc(Nc4ccc5[nH]ncc5c4)n3)ccc2C1 [TDI01683, (6-(4-((1H-indazol-5-yl)amino)pyrimidin-2-yl)-3,4-dihydroisoquinolin-2(1H)-yl)(3,3-difluorocyclobutyl)methanone] | 6.44 | < 5.00
c1ccc2oc(-c3cc4ccc(-c5nccc(Nc6ccc7[nH]ncc7c6)n5)cc4[nH]3)nc2c1 [TDI01816, N-(2-(2-(benzo[d]oxazol-2-yl)-1H-indol-6-yl]pyrimidin-4-yl)-1H-indazol-5-amine] | 6.95 | 5.22
COc1cc(Nc2ccnc(-c3ccc4cc(C(=O)N(C)C)[nH]c4c3)n2)ccc1-c1cn[nH]c1 [TDI01832, 6-(4-((3-methoxy-4-(1H-pyrazol-4-yl)phenyl)ami-no)pyrimidin-2-yl)-N, N-dimethyl-1H-indole-2-carboxamide] | 6.78 | < 5.00
CN(C)C(=O)c1cc2ccc(-c3nccc(Nc4ccc(-c5cn[nH]c5)c(F)c4)n3)cc2[nH]1 [TDI01842, 6-(4-((3-fluoro-4-(1H-pyrazol-4-yl)phenyl)ami-no)pyrimidin-2-yl)-N, N-dimethyl-1H-indole-2-carboxamide] | 6.92 | 5.52
O=C(Nc1ccnnc1)c1cc2ccc(-c3ncc(Cl)c(Nc4ccc5[nH]ncc5c4)n3)cc2[nH]1 [TDI01844, 6-(4-((1H-indazol-5-yl)amino)-5-chloropyrimidin-2-yl)-N-(pyridazin-4-yl)-1H-indole-2-carboxamide] | 6.43 | < 5.00
CC(C)NC(=O)c1cc2ccc(-c3nc(Nc4ccc(-c5cn[nH]c5)cc4)c4ccccc4n3)cc2[nH]1 [TDI01862, 6-(4-((4-(1H-pyrazol-4-yl)phenyl)-amino)-quinazolin-2-yl)-N-isopropyl-1H-indole-2-carboxamide] | 6.42 | < 5.00
Cn1c(-n2ccnc2)cc2ccc(-c3nccc(Nc4ccc(-c5cn[nH]c5)cc4)n3)cc21 [TDI01876B, 2-(2-(1H-imidazol-1-yl)-1-methyl-1H-indol-6-yl)-N-(4-(1H-pyrazol-4-yl)phenyl)pyrimidin-4-amine] | 6.62 | < 5.00
c1ccc2sc(-c3cc4ccc(-c5nccc(Nc6ccc7[nH]ncc7c6)n5)cc4[nH]3)nc2c1 [TDI01881, N-(2-(2-(benzo[d]thiazol-2-yl)-1H-indol-6-yl)pyrimidin-4-yl)-1H-indazol-5-amine] | 6.79 | < 5.00

The next compounds have a higher pIC50 [1] than those just listed; values first:

pIC50 [1] | pIC50 [2] | SMILES
7.05 | < 5.00 | COc1cnc(-c2ccc3cc(C(=O)Nc4ccnnc4)[nH]c3c2)nc1Nc1ccc2[nH]ncc2c1 [TDI01813, 6-(4-((1H-indazol-5-yl)amino)-5-methoxy-pyrimidin-2-yl)-N-(pyridazin-4-yl)-1H-indole-2-carboxamide]
7.08 | < 5.00 | O=C(c1cc2ccc(-c3ncc(F)c(Nc4ccc(-c5cn[nH]c5)cc4)n3)cc2s1)N1CC(F)(F)C1 [TDI01675, (6-(4-((4-(1H-pyrazol-4-yl)phenyl)-amino)-5-fluoro-pyrimidin-2-yl)benzo[b]-thiophen-2-yl)(3,3-difluoroazetidin-1-yl)methanone]
7.12 | < 5.00 | c1cc(Nc2ccc(-c3cn[nH]c3)cc2)nc(-c2ccc3cc(-c4nccs4)[nH]c3c2)n1 [TDI01826, N-(4-(1H-pyrazol-4-yl)phenyl)-2-(2-(thiazol-2-yl)-1H-indol-6-yl)pyrimidin-4-amine]
7.34 | < 5.00 | c1cnc(-c2cc3ccc(-c4nccc(Nc5ccc(-c6cn[nH]c6)cc5)n4)cc3[nH]2)nc1 [TDI01870, N-(4-(1H-pyrazol-4-yl)phenyl)-2-(2-(pyrimidin-2-yl)-1H-indol-6-yl)pyrimidin-4-amine]
7.38 | < 5.00 | COCc1cnc(-c2ccc3cc(C(=O)N4CC(F)(F)C4)n(C)c3c2)nc1Nc1ccc(-c2cn[nH]c2)cc1 [TDI01668, (6-(4-((4-(1H-pyrazol-4-yl)phenyl)amino)-5-(methoxymethyl)pyrimidin-2-yl)-1-methyl-1H-indol-2-yl)(3,3-difluoroazetidin-1-yl)methanone]
7.39 | < 5.00 | CC(C)NC(=O)N1Cc2ccc(-c3nc(Nc4ccc(-c5cn[nH]c5)cc4)c4occc4n3)cc2C1 [TDI01861, 5-(4-((4-(1H-pyrazol-4-yl)phenyl)amino)furo[3,2-d]pyrimidin-2-yl)-N-isopropylisoindoline-2-carboxamide]
7.49 | < 5.00 | COc1cnc(-c2ccc3cc(C(=O)N(C)CC(F)(F)F)[nH]c3c2)nc1Nc1ccc(-c2cn[nH]c2)cc1 [TDI01868, 6-(4-((4-(1H-pyrazol-4-yl)phenyl)-amino)-5-methoxy-pyrimidin-2-yl)-N-methyl-N-(2,2,2-trifluoroethyl)-1H-indole-2-carboxamide]
7.52 | 5.52 | CC(C)NC(=O)c1cc2ccc(-c3nc(Nc4ccc(-c5cn[nH]c5)cc4)c4occc4n3)cc2[nH]1 [TDI01864, 6-(4-((4-(1H-pyrazol-4-yl)phenyl)ami-no)furo[3,2-d]pyrimidin-2-yl)-N-isopropyl-1H-indole-2-carboxamide]
7.55 | < 5.00 | CC1(C(=O)N2Cc3ccc(-c4ncc(F)c(Nc5ccc(-c6cn[nH]c6)cc5)n4)cc3C2)CC(F)(F)C1 [TDI01628, (5-(4-((4-(1H-pyrazol-4-yl)phenyl)amino)-5-fluoropyrimidin-2-yl)isoindolin-2-yl)(3,3-difluoro-1-methylcyclobutyl) methanone]
7.57 | < 5.00 | O=C(OC1CC(F)(F)C1)N1Cc2ccc(-c3ncc(F)c(Nc4ccc5[nH]ncc5c4)n3)cc2C1 [TDI01613, 3,3-difluorocyclobutyl 5-(4-((1H-indazol-5-yl)amino)-5-fluoropyrimidin-2-yl)isoindoline-2-carboxylate]
7.80 | 5.69 | O=C(OC1CC2(CNC2)C1)N1Cc2ccc(-c3nccc(Nc4ccc(-c5cn[nH]c5)cc4)n3)cc2C1 [TDI01634, 2-azaspiro[3.3]heptan 6-yl 5-(4-((4-(1H-pyrazol-4-yl)phenyl)amino)pyrimidin-2-yl)isoindoline-2-carboxylate]
7.82 | < 5.00 | Cn1c(C(=O)N2CC(F)(F)C2)cc2ccc(-c3nc(Nc4ccc(-c5cn[nH]c5)cc4)c4c(n3)OCCO4)cc21 [TDI01851, (6-(4-((4-(1H-pyrazol-4-yl)phenyl)amino)-6,7-dihydro-[1,4]dioxino[2,3-d]pyrimidin-2-yl)-1-methyl-1H-indol-2-yl)(3,3-difluoroazetidin-1-yl)methanone]
7.96 | 6.00 | Cn1c(C(=O)Nc2ccncc2Cl)cc2ccc(-c3nccc(Nc4ccc5[nH]ncc5c4)n3)cc21 [TDI01841, 6-(4-((1H-indazol-5-yl)amino)-pyrimidin-2-yl)-N-(3-chloropyridin-4-yl)-1-methyl-1H-indole-2-carboxamide]
8.22 | 6.80 | CC(NC(=O)c1cc2ccc(-c3nccc(Nc4ccc(-c5cn[nH]c5)cc4)n3)cc2n1C)C(F)(F)F (stereo not shown) [TDI01691]
8.30 | 7.05 | O=C(NC1CCCN(c2ccncc2)C1)c1cc2ccc(-c3nccc(Nc4ccc5[nH]ncc5c4)n3)cc2[nH]1 (stereo not shown) [TDI01840, 6-(4-((1H-indazol-5-yl)amino)-pyrimidin-2-yl)-N-(1-(pyridin-4-yl)piperidin-3-yl)-1H-indole-2-carboxamide]
